The text below walks through data of the supplement of paper PMC10307832.

Common to all, as to experiment: relative viability (nuclei count vs DMSO), 5 days (fraction); higher = more cells survive
Compound in the experiment “CX-5461 + Trametinib”: Cc1cnc(CNC(=O)c2c(=O)c3ccc(N4CCCN(C)CC4)nc3n3c2sc2ccccc23)cn1 [CX-5461] + CC(=O)Nc1cccc(-n2c(=O)n(C3CC3)c(=O)c3c(Nc4ccc(I)cc4F)n(C)c(=O)c(C)c32)c1 [Trametinib] (partner 0.02 µM)
Put shortly: (§1)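 Nuclei were stained with Hoechst during a one-step fixation (final 0.05% Triton X-100, 1% formaldehyde, 1 ug/ml Hoechst) carried out 5 days after dosing, then counted on 4× images. The cells, lung cancer lines in 1536-well plates, had been dosed by pin tool the day after seeding with one drug alone or a fixed anchor-drug dose plus five library-drug doses (not always all listed) in √10 steps. Relative viability is the nuclei count in treated wells divided by that in vehicle wells, and each value is the median of duplicate plates.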

Compound in the experiment “CX-5461 + Palbociclib”: Cc1cnc(CNC(=O)c2c(=O)c3ccc(N4CCCN(C)CC4)nc3n3c2sc2ccccc23)cn1 [CX-5461] + CC(=O)c1c(C)c2cnc(Nc3ccc(N4CCNCC4)cn3)nc2n(C2CCCC2)c1=O [Palbociclib] (partner 0.5 µM)
Summed up:
as §1

Compound in the experiment “CX-5461 + Navitoclax”: Cc1cnc(CNC(=O)c2c(=O)c3ccc(N4CCCN(C)CC4)nc3n3c2sc2ccccc23)cn1 [CX-5461] + CC1(C)CCC(c2ccc(Cl)cc2)=C(CN2CCN(c3ccc(C(=O)NS(=O)(=O)c4ccc(N[C@H](CCN5CCOCC5)CSc5ccccc5)c(S(=O)(=O)C(F)(F)F)c4)cc3)CC2)C1 [Navitoclax] (partner 0.5 µM)
Summed up:
as §1

Compound in the experiment “CX-5461 + Linsitinib”: Cc1cnc(CNC(=O)c2c(=O)c3ccc(N4CCCN(C)CC4)nc3n3c2sc2ccccc23)cn1 [CX-5461] + C[C@]1(O)C[C@@H](c2nc(-c3ccc4ccc(-c5ccccc5)nc4c3)c3c(N)nccn32)C1 [Linsitinib] (partner 1 µM)
Summed up: as §1

As for PC-3 [JPC-3], the relative viability was 0.822 with CX-5461 + Trametinib (first compound 0.01 µM); 0.719 in the experiment with CX-5461 + Trametinib (first compound 0.1 µM); 0.749 with CX-5461 + Trametinib (first compound 0.3162 µM); 0.644 in the experiment with CX-5461 + Trametinib (first compound 1 µM); 0.517 in the experiment with CX-5461 + Palbociclib (first compound 0.01 µM); 0.533 with CX-5461 + Palbociclib (first compound 0.1 µM). Further, the relative viability with CX-5461 + Palbociclib (first compound 0.3162 µM) amounted to 0.543; with CX-5461 + Palbociclib (first compound 1 µM), 0.512; with CX-5461 + Navitoclax (first compound 0.01 µM) it was 0.86; in the experiment with CX-5461 + Navitoclax (first compound 0.03162 µM), 0.861; with CX-5461 + Navitoclax (first compound 0.1 µM), 0.746; with CX-5461 + Navitoclax (first compound 0.3162 µM) it was 0.784. Moreover, the relative viability with CX-5461 + Navitoclax (first compound 1 µM) turned out to be 0.821; with CX-5461 + Linsitinib (first compound 0.01 µM), 0.937; in the experiment with CX-5461 + Linsitinib (first compound 0.03162 µM), 0.885; in the experiment with CX-5461 + Linsitinib (first compound 0.1 µM), 0.933; with CX-5461 + Linsitinib (first compound 0.3162 µM), 0.936; with CX-5461 + Linsitinib (first compound 1 µM), 0.918.

Take PC-14: the relative viability is 0.718 in the experiment with CX-5461 + Trametinib (first compound 0.01 µM); 0.821 in the experiment with CX-5461 + Trametinib (first compound 0.03162 µM); 0.391 in the experiment with CX-5461 + Trametinib (first compound 0.1 µM); 0.76 with CX-5461 + Trametinib (first compound 0.3162 µM); 0.151 with CX-5461 + Trametinib (first compound 1 µM); 0.467 with CX-5461 + Palbociclib (first compound 0.01 µM). The relative viability with CX-5461 + Palbociclib (first compound 0.03162 µM) worked out at 0.466; with CX-5461 + Palbociclib (first compound 0.1 µM) it was 0.239; with CX-5461 + Palbociclib (first compound 0.3162 µM), 0.492; in the experiment with CX-5461 + Palbociclib (first compound 1 µM), 0.0872; with CX-5461 + Navitoclax (first compound 0.01 µM), 1.18; in the experiment with CX-5461 + Navitoclax (first compound 0.03162 µM), 1.06. In addition, the relative viability in the experiment with CX-5461 + Navitoclax (first compound 0.1 µM) stood at 1.03; with CX-5461 + Navitoclax (first compound 0.3162 µM) it was 0.974; in the experiment with CX-5461 + Navitoclax (first compound 1 µM), 0.979; with CX-5461 + Linsitinib (first compound 0.01 µM), 0.954; with CX-5461 + Linsitinib (first compound 0.03162 µM), 0.992; with CX-5461 + Linsitinib (first compound 0.1 µM) it was 1.03. For the same cell line, the relative viability in the experiment with CX-5461 + Linsitinib (first compound 0.3162 µM) stood at 0.987; with CX-5461 + Linsitinib (first compound 1 µM), 0.878.

With RERF-LC-KJ, the relative viability in the experiment with CX-5461 + Trametinib (first compound 0.01 µM) was found to be 0.853; with CX-5461 + Trametinib (first compound 0.03162 µM) it was 0.908; with CX-5461 + Trametinib (first compound 0.1 µM), 0.694; with CX-5461 + Trametinib (first compound 0.3162 µM), 0.89; with CX-5461 + Trametinib (first compound 1 µM), 0.644; with CX-5461 + Palbociclib (first compound 0.01 µM), 1.03. For the same cell line, the relative viability with CX-5461 + Palbociclib (first compound 0.03162 µM) was 1.16; in the experiment with CX-5461 + Palbociclib (first compound 0.1 µM) it was 0.713; in the experiment with CX-5461 + Palbociclib (first compound 0.3162 µM) it was 0.956; with CX-5461 + Palbociclib (first compound 1 µM), 0.742; with CX-5461 + Navitoclax (first compound 0.01 µM), 0.95; with CX-5461 + Navitoclax (first compound 0.03162 µM), 0.969. The relative viability with CX-5461 + Navitoclax (first compound 0.1 µM) is 1.17; with CX-5461 + Navitoclax (first compound 0.3162 µM), 0.887; with CX-5461 + Navitoclax (first compound 1 µM), 0.837; in the experiment with CX-5461 + Linsitinib (first compound 0.01 µM) it was 0.834; with CX-5461 + Linsitinib (first compound 0.03162 µM) it was 0.944; with CX-5461 + Linsitinib (first compound 0.1 µM), 0.972. Further, the relative viability amounted to 0.866 with CX-5461 + Linsitinib (first compound 0.3162 µM) and 0.797 with CX-5461 + Linsitinib (first compound 1 µM).

Take SK-LU-1: the relative viability stood at 0.503 in the experiment with CX-5461 + Trametinib (first compound 0.01 µM); 0.439 with CX-5461 + Trametinib (first compound 0.03162 µM); 0.49 in the experiment with CX-5461 + Trametinib (first compound 0.1 µM); 0.506 with CX-5461 + Trametinib (first compound 0.3162 µM); 0.345 with CX-5461 + Trametinib (first compound 1 µM); 0.412 in the experiment with CX-5461 + Palbociclib (first compound 0.01 µM). The relative viability with CX-5461 + Palbociclib (first compound 0.03162 µM) is 0.407; with CX-5461 + Palbociclib (first compound 0.1 µM) it was 0.376; with CX-5461 + Palbociclib (first compound 0.3162 µM), 0.388; with CX-5461 + Palbociclib (first compound 1 µM) it was 0.358; with CX-5461 + Navitoclax (first compound 0.01 µM), 0.792; with CX-5461 + Navitoclax (first compound 0.03162 µM), 0.972. For the same cell line, the relative viability with CX-5461 + Navitoclax (first compound 0.1 µM) is 0.718; with CX-5461 + Navitoclax (first compound 0.3162 µM), 0.808; with CX-5461 + Navitoclax (first compound 1 µM), 0.23; with CX-5461 + Linsitinib (first compound 0.01 µM), 1.31; with CX-5461 + Linsitinib (first compound 0.03162 µM), 1.11; with CX-5461 + Linsitinib (first compound 0.1 µM) it was 0.945. Moreover, the relative viability with CX-5461 + Linsitinib (first compound 0.3162 µM) is 0.921; with CX-5461 + Linsitinib (first compound 1 µM), 0.497.

As to SK-MES-1, the relative viability with CX-5461 + Trametinib (first compound 0.01 µM) was 0.641; with CX-5461 + Trametinib (first compound 0.03162 µM), 0.595; with CX-5461 + Trametinib (first compound 0.1 µM), 0.562; with CX-5461 + Trametinib (first compound 0.3162 µM), 0.533; in the experiment with CX-5461 + Trametinib (first compound 1 µM), 0.44; with CX-5461 + Palbociclib (first compound 0.01 µM) it was 0.299. Moreover, the relative viability with CX-5461 + Palbociclib (first compound 0.03162 µM) turned out to be 0.308; with CX-5461 + Palbociclib (first compound 0.1 µM) it was 0.281; with CX-5461 + Palbociclib (first compound 0.3162 µM), 0.342; with CX-5461 + Palbociclib (first compound 1 µM), 0.249; with CX-5461 + Navitoclax (first compound 0.01 µM) it was 1.19; with CX-5461 + Navitoclax (first compound 0.03162 µM), 1.28. Moreover, the relative viability in the experiment with CX-5461 + Navitoclax (first compound 0.1 µM) came to 1.28; with CX-5461 + Navitoclax (first compound 0.3162 µM) it was 1.38; with CX-5461 + Navitoclax (first compound 1 µM), 1.14; with CX-5461 + Linsitinib (first compound 0.01 µM), 1.16; with CX-5461 + Linsitinib (first compound 0.03162 µM), 1.12; with CX-5461 + Linsitinib (first compound 0.1 µM) it was 1.1. For the same cell line, the relative viability worked out at 1.11 with CX-5461 + Linsitinib (first compound 0.3162 µM) and 0.999 with CX-5461 + Linsitinib (first compound 1 µM).

For the cell line SW 1573, the relative viability in the experiment with CX-5461 + Trametinib (first compound 0.01 µM) worked out at 0.496; with CX-5461 + Trametinib (first compound 0.03162 µM), 0.513; with CX-5461 + Trametinib (first compound 0.1 µM) it was 0.126; with CX-5461 + Trametinib (first compound 0.3162 µM), 0.566; in the experiment with CX-5461 + Trametinib (first compound 1 µM) it was 0.16; with CX-5461 + Palbociclib (first compound 0.01 µM), 0.343. Also, the relative viability in the experiment with CX-5461 + Palbociclib (first compound 0.03162 µM) came out at 0.388; in the experiment with CX-5461 + Palbociclib (first compound 0.1 µM), 0.125; with CX-5461 + Palbociclib (first compound 0.3162 µM), 0.371; with CX-5461 + Palbociclib (first compound 1 µM), 0.109; with CX-5461 + Navitoclax (first compound 0.01 µM), 0.974; with CX-5461 + Navitoclax (first compound 0.03162 µM), 0.998. In addition, the relative viability with CX-5461 + Navitoclax (first compound 0.1 µM) amounted to 1.05; with CX-5461 + Navitoclax (first compound 0.3162 µM), 0.872; in the experiment with CX-5461 + Navitoclax (first compound 1 µM), 1.12; in the experiment with CX-5461 + Linsitinib (first compound 0.01 µM), 0.782; with CX-5461 + Linsitinib (first compound 0.03162 µM), 0.84; in the experiment with CX-5461 + Linsitinib (first compound 0.1 µM), 0.977. The relative viability with CX-5461 + Linsitinib (first compound 0.3162 µM) was determined as 0.828; with CX-5461 + Linsitinib (first compound 1 µM), 0.907.

Regarding UMC-11, the relative viability with CX-5461 + Trametinib (first compound 0.01 µM) is 0.685; with CX-5461 + Trametinib (first compound 0.03162 µM), 0.769; with CX-5461 + Trametinib (first compound 0.1 µM), 0.762; with CX-5461 + Trametinib (first compound 0.3162 µM) it was 0.317; in the experiment with CX-5461 + Trametinib (first compound 1 µM), 0.249; in the experiment with CX-5461 + Palbociclib (first compound 0.01 µM), 0.36. For the same cell line, the relative viability with CX-5461 + Palbociclib (first compound 0.03162 µM) was determined as 0.319; with CX-5461 + Palbociclib (first compound 0.1 µM), 0.306; in the experiment with CX-5461 + Palbociclib (first compound 0.3162 µM), 0.294; with CX-5461 + Palbociclib (first compound 1 µM), 0.241; in the experiment with CX-5461 + Navitoclax (first compound 0.01 µM), 0.319; with CX-5461 + Navitoclax (first compound 0.03162 µM) it was 0.294. For the same cell line, the relative viability in the experiment with CX-5461 + Navitoclax (first compound 0.1 µM) stood at 0.302; in the experiment with CX-5461 + Navitoclax (first compound 0.3162 µM) it was 0.282; in the experiment with CX-5461 + Navitoclax (first compound 1 µM) it was 0.23; in the experiment with CX-5461 + Linsitinib (first compound 0.01 µM), 0.907; with CX-5461 + Linsitinib (first compound 0.03162 µM) it was 1.07; with CX-5461 + Linsitinib (first compound 0.1 µM) it was 1.02. Moreover, the relative viability with CX-5461 + Linsitinib (first compound 0.3162 µM) was found to be 0.92; with CX-5461 + Linsitinib (first compound 1 µM) it was 0.807.
